Test results reported in patent publication US12421210B2, “Fused bicyclic heterocycles as therapeutic agents” (NEW YORK UNIVERSITY, priority 2018, dated 2025).

The compounds below were run against human NAMPT enzyme (His-hNAMPT) (Homo sapiens (Human), UniProt P43490) (assay: NAMPT enzymatic inhibition assay (fluorescence, NADH product)). Conditions: [BPS]; read-out: NAMPT IC50 (μM) [BPS].
Type: biochemical

Chain of human NAMPT enzyme (His-hNAMPT) (P43490 whole entry): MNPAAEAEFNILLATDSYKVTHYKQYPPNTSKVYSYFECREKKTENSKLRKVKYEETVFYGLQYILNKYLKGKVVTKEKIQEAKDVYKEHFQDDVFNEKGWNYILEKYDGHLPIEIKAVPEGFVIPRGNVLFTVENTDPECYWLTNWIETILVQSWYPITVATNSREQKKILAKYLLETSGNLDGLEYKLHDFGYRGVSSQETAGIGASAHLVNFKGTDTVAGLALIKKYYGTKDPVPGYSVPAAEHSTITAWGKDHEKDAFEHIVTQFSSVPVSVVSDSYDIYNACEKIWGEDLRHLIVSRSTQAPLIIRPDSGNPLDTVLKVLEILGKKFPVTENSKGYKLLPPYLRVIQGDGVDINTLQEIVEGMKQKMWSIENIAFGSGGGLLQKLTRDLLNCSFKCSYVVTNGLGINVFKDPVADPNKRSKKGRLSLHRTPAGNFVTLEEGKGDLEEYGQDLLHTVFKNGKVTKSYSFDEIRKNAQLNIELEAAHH

Question: Which IC50 does the source give for `O=C(NCC[C@@H]1[C@H]2CN(C(=O)OC3CCOCC3)C[C@@H]12)c1cnc2nccn2c1` [Example 79, (1R,5S,6s)-tetrahydro-2H-pyran-4-yl 6-(2-(imidazo[1,2-a]pyrimidine-6-carboxamido)ethyl)-3-azabicyclo[3.1.0]hexane-3-carboxylate] here?
Answer: 0.01 to 0.49 µM

Question: `CC(C)(C)OC(=O)N1C[C@H]2C[C@@H](CCNC(=O)/C=C/c3cccnc3)C[C@H]2C1` [Example 274, (3aR,5r,6aS)-tert-butyl 5-(2-((E)-3-(pyridin-3 yl)acrylamido)ethyl)hexahydrocyclopenta[c]pyrrole-2(1H)-carboxylate] was tested. Which IC50 did it give?
Answer: 0.01 to 0.49 µM

Question: `O=C(NCC[C@@H]1[C@H]2CN(C(=O)c3ccccc3)C[C@@H]12)c1cnc2nccn2c1` [Example 76, N-(2-((1R,5S,6s)-3-benzoyl-3-azabicyclo[3.1.0]hexan-6-yl)ethyl)imidazo[1,2-a]pyrimidine-6-carboxamide] was tested. Which IC50 did it give?
Answer: 0.01 to 0.49 µM

Question: With `CC1(OC(=O)N2C[C@@H]3[C@@H](CCNC(=O)c4cnc5[nH]ncc5c4)[C@@H]3C2)COC1` [Example 55, (1R,5S,6s)-3-methyloxetan-3-yl 6-(2-(1H-pyrazolo[3,4-b]pyridine-5-carboxamido)ethyl)-3-azabicyclo[3.1.0]hexane-3-carboxylate] as the compound, how does the IC50 read?
Answer: > 30 µM

Question: Which IC50 does the source give for `CC(C)(C)OC(=O)N1C[C@@H]2[C@H](C1)[C@H]2C(F)CNC(=O)/C=C/c1cccnc1` (stereo partly drawn) [Example 255, (1R,5S,6r)-tert-butyl 6-(1-fluoro-2-((E)-3-(pyridin-3-yl)acrylamido)ethyl)-3-azabicyclo[3.1.0]hexane-3-carboxylate] here?
Answer: 0.01 to 0.49 µM

Question: `Nc1ccc(/C=C/C(=O)NCC[C@@H]2[C@H]3CN(C(=O)NC4CCOCC4)C[C@@H]23)cn1` [Example 32, (1R,5S,6s)-6-(2-((E)-3-(6-aminopyridin-3-yl)acrylamido)ethyl)-N-(tetrahydro-2H-pyran-4-yl)-3-azabicyclo[3.1.0]hexane-3-carboxamide] was tested. Which IC50 did it give?
Answer: 0.01 to 0.49 µM

Question: Which IC50 does the source give for `CC1(OC(=O)N2C[C@@H]3[C@@H](CCNC(=O)c4cc(-c5cccnc5)on4)[C@@H]3C2)COC1` [Example 50, (1R,5S,6s)-3-methyloxetan-3-yl 6-(2-(5-(pyridin-3-yl)isoxazole-3-carboxamido)ethyl)-3-azabicyclo[3.1.0]hexane-3-carboxylate] here?
Answer: 0.01 to 0.49 µM

Question: Which IC50 does the source give for `Cc1nc(C)c(C(=O)N2C[C@@H]3[C@@H](CCNC(=O)/C=C/c4cccnc4)[C@@H]3C2)o1` [Example 105, (E)-N-(2-((1R,5S,6s)-3-(2,4-dimethyloxazole-5-carbonyl)-3-azabicyclo[3.1.0]hexan-6-yl)ethyl)-3-(pyridin-3-yl)acrylamide] here?
Answer: 0.01 to 0.49 µM

Question: How did the IC50 turn out when `CC(C)(C)OC(=O)N1C[C@@H]2[C@@H](CCNC(=O)c3ccc4nccn4c3)[C@@H]2C1` [Example 7, (1R,5S,6s)-tert-butyl 6-(2-(imidazo[1,2-a]pyridine-6-carboxamido)ethyl)-3-azabicyclo[3.1.0]hexane-3-carboxylate] was run?
Answer: 0.01 to 0.49 µM

Question: `O=C(/C=C/c1cccnc1)NCC[C@@H]1[C@H]2CN(C(=O)CC3CCOCC3)C[C@@H]12` [Example 104] was tested. Which IC50 did it give?
Answer: 0.01 to 0.49 µM

Question: With `O=C(/C=C/c1cccnc1)NCC[C@@H]1[C@H]2CN(c3cccc(F)c3)C[C@@H]12` [Example 128, (E)-N-(2-((1R,5S,6s)-3-(3-fluorophenyl)-3-azabicyclo[3.1.0]hexan-6-yl)ethyl)-3-(pyridin-3-yl)acrylamide] as the compound, how does the IC50 read?
Answer: 0.01 to 0.49 µM

Same assay, conditions: [HDB]; read-out: NAMPT IC50 (μM) [HDB]

Question: For `Nc1ccc(/C=C/C(=O)NCC[C@@H]2[C@H]3CN(c4cccc(C(F)(F)F)c4)C[C@@H]23)cn1` [Example 202, (E)-3-(6-aminopyridin-3-yl)-N-(2-((1R,5S,6s)-3-(3-(trifluoromethyl)phenyl)-3-azabicyclo[3.1.0]hexan-6-yl)ethyl)acrylamide], which IC50 is on record?
Answer: 0.01 to 0.49 µM

Question: For `O=C(/C=C/c1cccnc1)NCC[C@@H]1[C@H]2CN(c3nc(N4CCNCC4)ncc3F)C[C@@H]12` [Example 324, (E)-N-(2-((1R,5S,6s)-3-(5-fluoro-2-(piperazin-1-yl)pyrimidin-4-yl)-3-azabicyclo[3.1.0]hexan-6-yl)ethyl)-3-(pyridin-3-yl)acrylamide], which IC50 is on record?
Answer: 0.01 to 0.49 µM

Question: With `O=C(NCC[C@@H]1[C@H]2CN(c3ncccn3)C[C@@H]12)c1cnc2nccn2c1` [Example 199, N-(2-((1R,5S,6s)-3-(pyrimidin-2-yl)-3-azabicyclo[3.1.0]hexan-6-yl)ethyl)imidazo[1,2-a]pyrimidine-6-carboxamide] as the compound, how does the IC50 read?
Answer: 0.01 to 0.49 µM

Question: With `CC(c1cccnc1)N1C[C@@H]2[C@@H](CCNC(=O)/C=C/c3cccnc3)[C@@H]2C1` (stereo partly drawn) [Example 320, (E)-3-(pyridin-3-yl)-N-(2-((1R,5S,6s)-3-(1-(pyridin-3-yl)ethyl)-3-azabicyclo[3.1.0]hexan-6-yl)ethyl)acrylamide] as the compound, how does the IC50 read?
Answer: < 0.01 µM

Question: For `COC(=O)C(c1ccccc1)N1C[C@@H]2[C@@H](CCNC(=O)/C=C/c3cccnc3)[C@@H]2C1` (stereo partly drawn) [Example 309, methyl 2-phenyl-2-((1R,5S,6s)-6-(2-((E)-3-(pyridin-3-yl)acrylamido)ethyl)-3-azabicyclo[3.1.0]hexan-3-yl)acetate], which IC50 is on record?
Answer: < 0.01 µM

Question: `O=C(/C=C/c1cccnc1)NCC[C@@H]1[C@H]2CN(Cc3ccccc3Cl)C[C@@H]12` [Example 300, (E)-N-(2-((1R,5S,6s)-3-(2-chlorobenzyl)-3-azabicyclo[3.1.0]hexan-6-yl)ethyl)-3-(pyridin-3-yl)acrylamide] was tested. Which IC50 did it give?
Answer: 0.01 to 0.49 µM

Question: For `CN1CCN(c2ncc(F)c(N3C[C@@H]4[C@@H](CCNC(=O)/C=C/c5cccnc5)[C@@H]4C3)n2)CC1` [Example 325, (E)-N-(2-((1R,5S,6s)-3-(5-fluoro-2-(4-methylpiperazin-1-yl)pyrimidin-4-yl)-3-azabicyclo[3.1.0]hexan-6-yl)ethyl)-3-(pyridin-3-yl)acrylamide], which IC50 is on record?
Answer: < 0.01 µM

Question: `Cc1nc2nccc(N3C[C@@H]4[C@@H](CCNC(=O)/C=C/c5cccnc5)[C@@H]4C3)c2o1` [Example 342, (E)-N-(2-((1R,5S,6s)-3-(2-methyloxazolo[4,5-b]pyridin-7-yl)-3-azabicyclo[3.1.0]hexan-6-yl)ethyl)-3-(pyridin-3-yl)acrylamide] was tested. Which IC50 did it give?
Answer: 0.01 to 0.49 µM

Question: Which IC50 does the source give for `O=C(/C=C/c1cccnc1)NCC[C@@H]1[C@H]2CN(c3cc(Cl)ccc3F)C[C@@H]12` [Example 150, (E)-N-(2-((1R,5S,6s)-3-(5-chloro-2-flurophenyl)-3-azabicyclo[3.1.0]hexan-6-yl)ethyl)-3-(pyridin-3-yl)acrylamide] here?
Answer: 0.01 to 0.49 µM

Question: With `O=C(O)c1cccc(C(=O)N2C[C@@H]3[C@@H](CCNC(=O)c4cnc5nccn5c4)[C@@H]3C2)c1` [Example 182, 3-((1R,5S,6s)-6-(2-(imidazo[1,2-a]pyrimidine-6-carboxamido)ethyl)-3-azabicyclo[3.1.0]hexane-3-carbonyl)benzoic acid] as the compound, how does the IC50 read?
Answer: 0.01 to 0.49 µM

Question: For `Nc1ccc(/C=C/C(=O)NCC[C@@H]2[C@H]3CN(c4cccc(F)c4)C[C@@H]23)cn1` [Example 201, (E)-3-(6-aminopyridin-3-yl)-N-(2-((1R,5S,6s)-3-(3-fluorophenyl)-3-azabicyclo[3.1.0]hexan-6-yl)ethyl)acrylamide], which IC50 is on record?
Answer: < 0.01 µM

Question: `O=C(NCC[C@@H]1[C@H]2CN(c3ccc(F)cc3)C(=O)[C@@H]12)N1Cc2ccccc2C1` (racemic) [Example 266, N-(2-((1R,5S,6S)-3-(4-fluorophenyl)-2-oxo-3-azabicyclo[3.1.0]hexan-6-yl)ethyl)isoindoline-2-carboxamide and N-(2-((1S,5R,6R)-3-(4-fluorophenyl)-2-oxo-3-azabicyclo[3.1.0]hexan-6-yl)ethyl)isoindoline-2-carboxamide] was tested. Which IC50 did it give?
Answer: 0.01 to 0.49 µM

Question: How did the IC50 turn out when `CSc1cccc(N2C[C@@H]3[C@@H](CCNC(=O)/C=C/c4cccnc4)[C@@H]3C2)c1` [Example 151, (E)-N-(2-((1R,5S,6s)-3-(3-(methylthio)phenyl)-3-azabicyclo[3.1.0]hexan-6-yl)ethyl)-3-(pyridin-3-yl)acrylamide] was run?
Answer: < 0.01 µM

Question: For `N#Cc1cccc(N2C[C@@H]3[C@@H](CCNC(=O)/C=C/c4cccnc4)[C@@H]3C2)c1` [Example 136, (E)-N-(2-((1R,5S,6s)-3-(3-cyanophenyl)-3-azabicyclo[3.1.0]hexan-6-yl)ethyl)-3-(pyridin-3-yl)acrylamide], which IC50 is on record?
Answer: < 0.01 µM

Question: `Nc1ccc(/C=C/C(=O)NCC[C@@H]2[C@H]3CN(c4cccc(C(F)(F)F)c4)C(=O)[C@@H]23)cn1` (racemic) [Example 263, (E)-3-(6-aminopyridin-3-yl)-N-(2-((1R,5S,6S)-2-oxo-3-(3-(trifluoromethyl)phenyl)-3-azabicyclo[3.1.0]hexan-6-yl)ethyl)acrylamide and (E)-3-(6-aminopyridin-3-yl)-N-(2-((1S,5R,6R)-2-oxo-3-(3-(trifluoromethyl)phenyl)-3-azabicyclo[3.1.0]hexan-6-yl)ethyl)acrylamide] was tested. Which IC50 did it give?
Answer: 0.01 to 0.49 µM

Question: Which IC50 does the source give for `CC(C)(C)OC(=O)N1C[C@@H]2[C@H](CCNC(=O)/C=C/c3cccnc3)[C@@H]2C1` [Example 279, (1R,5S,6r)-tert-butyl 6-(2-((E)-3-(pyridin-3-yl)acrylamido)ethyl)-3-azabicyclo[3.1.0]hexane-3-carboxylate] here?
Answer: 0.01 to 0.49 µM

Question: Which IC50 does the source give for `O=C(NCC[C@@H]1[C@H]2CN(c3nc(Cl)ncc3F)C[C@@H]12)c1cc2c(nc3sccn32)s1` [Example 220, N-(2-((1R,5S,6s)-3-(2-chloro-5-fluoropyrimidin-4-yl)-3-azabicyclo[3.1.0]hexan-6-yl)ethyl)thieno[2′,3′:4,5]imidazo[2,1-b]thiazole-2-carboxamide] here?
Answer: 0.01 to 0.49 µM

Question: `COc1ncc(F)c(N2C[C@@H]3[C@@H](CCNC(=O)/C=C/c4cccnc4)[C@@H]3C2)n1` [Example 297, (E)-N-(2-((1R,5S,6s)-3-(5-fluoro-2-methoxypyrimidin-4-yl)-3-azabicyclo[3.1.0]hexan-6-yl)ethyl)-3-(pyridin-3-yl)acrylamide] was tested. Which IC50 did it give?
Answer: < 0.01 µM

Question: Which IC50 does the source give for `O=C(/C=C/c1cccnc1)NCC[C@@H]1[C@H]2CN(C(CO)c3ccccc3)C[C@@H]12` (stereo partly drawn) [Example 286, (E)-N-(2-((1R,5S,6s)-3-(2-hydroxy-1-phenylethyl)-3-azabicyclo[3.1.0]hexan-6-yl)ethyl)-3-(pyridin-3-yl)acrylamide] here?
Answer: 0.01 to 0.49 µM

Question: With `Nc1ccc(/C=C/C(=O)NCC[C@@H]2[C@H]3CN(c4ccc(F)cc4)C[C@@H]23)cn1` [Example 341, (E)-3-(6-aminopyridin-3-yl)-N-(2-((1R,5S,6s)-3-(4-fluorophenyl)-3-azabicyclo[3.1.0]hexan-6-yl)ethyl)acrylamide] as the compound, how does the IC50 read?
Answer: 0.01 to 0.49 µM
